Patent US6355658B1, “Coumarin derivatives, methods of preparation and application as medicines” (Centre National de la Recherche Scientifique, priority 1997, dated 2002)
Where two headings read alike, the source gives them in different places. Values belong to the compound of their own block, whether it stands above or below them.

How the values were obtained:
[1] = molecular target: T1, human leukocyte elastase (Homo sapiens, UniProt P08246); test: Inactivation kinetics of human leukocyte elastase (chromogenic substrate MeOSuc-Ala2-Pro-Val-pNA); format: biochemical
T1 sequence (P08246 30-247 limits assumed): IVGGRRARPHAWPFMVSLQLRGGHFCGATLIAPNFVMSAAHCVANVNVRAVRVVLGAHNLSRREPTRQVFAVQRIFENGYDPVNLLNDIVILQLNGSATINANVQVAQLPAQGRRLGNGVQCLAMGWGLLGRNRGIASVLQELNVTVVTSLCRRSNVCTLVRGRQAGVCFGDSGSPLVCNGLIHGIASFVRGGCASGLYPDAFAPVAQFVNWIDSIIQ
Experimental: (§1) The inactivating or inhibitory properties of the coumarin derivatives were tested with respect to a certain number of enzymes: human leukocyte elastase, bovine α-chymotrypsin, human thrombin and bovine trypsin. The kinetic measurements were taken at 25° C. in the following buffers: 0.1 M Hepes, 0.5 M NaCl, 0.01% Tween 80, pH 8.0 (human leukocyte elastase); 0.025 M NaH2PO4, 0.05 M KCl, pH 7.5 (α-chymotrypsin); 0.01 M Tris, 0.01 M Hepes, 0.1 M NaCl, 0.1% PEG-6000, pH 7.5 (human thrombin); 0.1 M Tris, 0.01 M CaCl2, pH 7.5 (bovine trypsin). The chromogenic substrates used to determine the activity of the enzymes are: MeOSuc-Ala2-Pro-Val-pNA (human leukocyte elastase); Suc-Ala2-Pro-Phe-pNA (α-chymotrypsin); H-D-Phe-Pip-Arg-pNA (human thrombin); N-benzoyl-Arg-pNA (bovine trypsin) (pNA: para-nitroaniline).
(§2) The interaction of a suicide substrate with a serine protease corresponds to the minimum reaction scheme described in equation 1 in which E represents the enzyme, I represents the inhibitor, E-I represents the acyl-enzyme and E-I′ represents the inactivated enzyme [Silverman R. B., 1988, “Mechanism-based enzyme inactivation: chemistry and enzymology”, volume 1 CRC Press, Boca Raton, Fla.]: [drawing 76]
(§3) When k4 is small compared to k3, equation 1 can be simplified (equation 2, [Daniels et al., 1983, J. Biol. Chem., 258: 15046-15053]): [drawing 77]
(§4) Considering the first instants of the reaction, the system reduces to a simplified equation of the form of equation 2.
(§5) The kinetic constants characterizing the inactivation of the enzymes with the coumarin derivatives were determined using either the conventional sampling method (or batchwise method) or a method placing the inhibitor and the substrate in competition (or continuous method); these methods are described by Pochet et al. [Pochet et al., 1996, J. Med. Chem., 39: 2579-2585].
(§6) The inactivation of serine proteaaes with the coumarin derivatives is thus characterized by the following constants (see Eq. 2):
(§7) KI: apparent dissociation constant of an enzyme-inhibitor complex located upstream of ki
(§8) ki: first-order rate constant for inactivation at infinite inhibitor concentration
(§9) ki/KI: index of the overall inactivating efficacy of the inhibitor.

[2] = molecular target: T2, bovine α-chymotrypsin (Bos taurus, UniProt P00766); test: Inactivation kinetics of bovine α-chymotrypsin (chromogenic substrate Suc-Ala2-Pro-Phe-pNA); format: biochemical; details: 25° C., pH 7.5, N.I. = non-inactivator; for kinact/KI: read-out: Ki/KI or kobs/[I], α-CT
T2 construct: bovine α-chymotrypsin
Experimental: as §1, §2, §3, §4, §5, §6, §7, §8, §9

[3] = molecular target: T3, human thrombin (Homo sapiens, UniProt P00734); test: Inactivation kinetics of human thrombin (chromogenic substrate H-D-Phe-Pip-Arg-pNA); format: biochemical; details: 25° C., pH 7.5, N.I. = non-inactivator; for kinact/KI: read-out: Ki/KI or kobs/[I], Thrombin
T3 construct: human thrombin
Experimental: as §1, §2, §3, §4, §5, §6, §7, §8, §9

[4] = molecular target: T4, bovine trypsin (Bos taurus, UniProt P00760); test: Inactivation kinetics of bovine trypsin (chromogenic substrate N-benzoyl-Arg-pNA); format: biochemical; details: 25° C., pH 7.5, N.I. = non-inactivator
T4 sequence (P00760 24-246): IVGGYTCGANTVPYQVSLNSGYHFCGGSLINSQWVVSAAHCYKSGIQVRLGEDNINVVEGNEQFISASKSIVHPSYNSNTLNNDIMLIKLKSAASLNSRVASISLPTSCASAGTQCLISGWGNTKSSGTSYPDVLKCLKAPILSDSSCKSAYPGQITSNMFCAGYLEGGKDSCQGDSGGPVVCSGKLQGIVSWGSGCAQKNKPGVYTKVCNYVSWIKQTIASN
Experimental: as §1, §2, §3, §4, §5, §6, §7, §8, §9

[5] = TABLE 5, phenyl esters, without 6-chloromethyl: inactivation phase of transient inactivation
[6] = TABLE 5, phenyl esters, 25° C., pH 8.0, inactivation phase, N.I. = non-inactivator, read-out: Ki/KI or kobs/[I], HLE
[7] = TABLE 5, phenyl esters, inactivation phase
[8] = TABLE 3, no chloromethyl in position 6, 25° C., pH 8.0, inactivation phase of transient inactivation, read-out: Ki/KI or kobs/[I], LHE
[9] = TABLE 3, no chloromethyl in position 6
[10] = TABLE 3, 25° C., pH 8.0, inactivation phase
[11] = TABLE 1, 2-pyridyl esters, 25° C., pH 8.0, inactivation phase of transient inactivation, read-out: Ki/KI or kobs/[I], LHE
[12] = TABLE 1, 25° C., pH 8.0, inactivation phase
[13] = TABLE 1, 2-pyridyl esters, inactivation phase

Ki/KI or kobs/[I], HLE ([1]; TABLE 5, phenyl esters, 25° C., pH 8.0, inactivation phase, N.I. = non-inactivator): N.I.
kinact/KI [2, 5]: 39000 M⁻¹ s⁻¹
Structure (SMILES): O=C(Sc1ccccc1)c1cc2cc(CCl)ccc2oc1=O [III1, S-phenyl 6-chloromethyl-2-oxo-2H-1-benzopyran-3-carbothioate]

kinact/KI [1, 6]: < 200 M⁻¹ s⁻¹
Ki/KI or kobs/[I], Thrombin [3, 7]: — N.I.
melting point: 194 to 195 °C
kinact/KI [2, 5]: 730000 M⁻¹ s⁻¹
Structure (SMILES): O=C(Sc1cccc(Cl)c1)c1cc2cc(CCl)ccc2oc1=O [III2, S-(3-chlorophenyl) 6-chloromethyl-2-oxo-2H-1-benzopyran-3-carbothioate]

kinact/KI [1, 8]: 32800 M⁻¹ s⁻¹
Ki/KI or kobs/[I], Trypsin ([4]; TABLE 3): N.I. N.I. N.I. N.I. N.I. N.I. N.I. — —
Structure (SMILES): O=C(Oc1cncc(Cl)c1)c1cc2ccccc2oc1=O [Ia3, 5-chloro-3-pyridyl 2-oxo-2H-1-benzopyran-3-carboxylate]
Ki/KI or kobs/[I], Thrombin ([3]; TABLE 3): N.I. N.I. N.I. N.I. N.I. N.I. N.I. N.I. —
Ki/KI or kobs/[I], α-CT [2, 9]: N.I.^a N.I. N.I. N.I. N.I. N.I. N.I. N.I.

kinact/KI [1, 6]: 5800 M⁻¹ s⁻¹
Ki/KI or kobs/[I], Thrombin [3, 7]: N.I.
melting point: 189 to 192 °C
Structure (SMILES): O=C(Oc1cc(Cl)ccc1Cl)c1cc2ccccc2oc1=O [Ia4, 2,5-dichlorophenyl 2-oxo-2H-1-benzopyran-3-carboxylate]

kinact/KI [1, 6]: 1100 M⁻¹ s⁻¹
melting point: 175 to 176 °C
kinact/KI [2, 5]: 9400 M⁻¹ s⁻¹
Structure (SMILES): Cc1ccc2oc(=O)c(C(=O)Oc3cccc(Cl)c3)cc2c1 [Ib1, 3-chlorophenyl 6-methyl-2-oxo-2H-1-benzopyran-3-carboxylate]

kinact/KI [1, 8]: 32500 M⁻¹ s⁻¹
Ki/KI or kobs/[I], LHE [1, 10]: 32500 M⁻¹ s⁻¹
half-reactivation time for the enzyme ([1]; compound 750 nM, HLE 100 nM): 35 min
time during which the inhibition remains at 90% ([1]; compound 750 nM, HLE 100 nM): 80 min
inhibition at 0.75 µM ([1]; compound 750 nM, HLE 100 nM, reached in less than one minute): 90%
melting point: 215 to 217 °C
Ki/KI or kobs/[I], Trypsin ([4]; TABLE 3): N.I. N.I. N.I. N.I. N.I. N.I. N.I. — —
Ki/KI or kobs/[I], Trypsin ([4]; second table headed TABLE 3): N.I. N.I. N.I. N.I. N.I. N.I. N.I. — —
Structure (SMILES): Cc1ccc2oc(=O)c(C(=O)Oc3cncc(Cl)c3)cc2c1 [Ib2, 5-chloro-3-pyridyl 6-methyl-2-oxo-2H-1-benzopyran-3-carboxylate]
Ki/KI or kobs/[I], Thrombin ([3]; TABLE 3): N.I. N.I. N.I. N.I. N.I. N.I. N.I. N.I. —
Ki/KI or kobs/[I], Thrombin ([3]; second table headed TABLE 3): N.I. N.I. N.I. N.I. N.I. N.I. N.I. N.I. —
Ki/KI or kobs/[I], α-CT [2, 9]: N.I.^a N.I. N.I. N.I. N.I. N.I. N.I. N.I.
Ki/KI or kobs/[I], α-CT ([2]; second table headed TABLE 3): N.I.^a N.I. N.I. N.I. N.I. N.I. N.I. N.I.

kinact/KI [1, 11]: 26000 M⁻¹ s⁻¹
Ki/KI or kobs/[I], LHE [1, 12]: 26000 M⁻¹ s⁻¹
kinact/KI [3, 13]: 7200 M⁻¹ s⁻¹
Ki/KI or kobs/[I], Thrombin ([3]; TABLE 1, inactivation phase): 7200 M⁻¹ s⁻¹
melting point: 172 to 173 °C
kinact/KI ([2]; TABLE 1, 2-pyridyl esters): 107000 M⁻¹ s⁻¹
Structure (SMILES): O=C(Oc1cccc(Cl)n1)c1cc2cc(CCl)ccc2oc1=O [Ic′″12, 6-chloro-2-pyridyl 6-chloromethyl-2-oxo-2H-1-benzopyran-3-carboxylate]

kinact/KI [1, 11]: 110 M⁻¹ s⁻¹
Ki/KI or kobs/[I], LHE [1, 12]: 110 M⁻¹ s⁻¹
Ki/KI or kobs/[I], Thrombin [3, 13]: N.I.
Ki/KI or kobs/[I], Thrombin ([3]; TABLE 1, inactivation phase): N.I.
melting point: 171 to 172 °C
kinact/KI ([2]; TABLE 1, 2-pyridyl esters): ~2500 M⁻¹ s⁻¹
Structure (SMILES): O=C(Oc1ccc(Cl)cn1)c1cc2cc(CCl)ccc2oc1=O [Ic′″13, 5-chloro-2-pyridyl 6-chloromethyl-2-oxo-2H-1-benzopyran-3-carboxylate]

kinact/KI [1, 6]: 1250 M⁻¹ s⁻¹
melting point: 163 to 164 °C
kinact/KI [2, 5]: 9300 M⁻¹ s⁻¹
Structure (SMILES): O=C(Oc1ccccc1[N+](=O)[O-])c1cc2cc(CCl)ccc2oc1=O [Ic″1, 2-nitrophenyl 6-chloromethyl-2-oxo-2H-1-benzopyran-3-carboxylate]

kinact/KI [1, 6]: 330 M⁻¹ s⁻¹
melting point: 162 to 163 °C
kinact/KI [2, 5]: < 500 M⁻¹ s⁻¹
Structure (SMILES): O=C(Oc1cccc(C(F)(F)F)c1)c1cc2cc(CCl)ccc2oc1=O [Ic″2, 3-trifluoromethylphenyl 6-chloromethyl-2-oxo-2H-1-benzopyran-3-carboxylate]

kinact/KI [1, 6]: < 200 M⁻¹ s⁻¹
Ki/KI or kobs/[I], Thrombin [3, 7]: — — — — N.I. N.I.
kinact/KI [2, 5]: 1200 M⁻¹ s⁻¹
Structure (SMILES): O=C(Oc1cccc(Cl)c1Cl)c1cc2cc(CCl)ccc2oc1=O [Ic″3, 2,3-dichlorophenyl 6-chloromethyl-2-oxo-2H-1-benzopyran-3-carboxylate]

kinact/KI [1, 6]: < 200 M⁻¹ s⁻¹
Ki/KI or kobs/[I], Thrombin [3, 7]: — — — — N.I. N.I.
Ki/KI or kobs/[I], α-CT [2, 5]: N.I.
Structure (SMILES): O=C(Oc1c(Cl)cccc1Cl)c1cc2cc(CCl)ccc2oc1=O [Ic″5, 2,6-dichlorophenyl 6-chloromethyl-2-oxo-2H-1-benzopyran-3-carboxylate]

kinact/KI [1, 6]: 4000 M⁻¹ s⁻¹
Ki/KI or kobs/[I], Thrombin [3, 7]: N.I.
kinact/KI [2, 5]: 110000 M⁻¹ s⁻¹
Structure (SMILES): O=C(Oc1cc(Cl)cc(Cl)c1)c1cc2cc(CCl)ccc2oc1=O [Ic″6, 3,5-dichlorophenyl 6-chloromethyl-2-oxo-2H-1-benzopyran-3-carboxylate]

kinact/KI [1, 6]: 350 M⁻¹ s⁻¹
kinact/KI [2, 5]: 1200 M⁻¹ s⁻¹
Structure (SMILES): COc1cc(Cl)cc(OC(=O)c2cc3cc(CCl)ccc3oc2=O)c1 [Ic″7, 3-chloro-5-methoxyphenyl 6-chloromethyl-2-oxo-2H-1-benzopyran-3-carboxylate]

Structure (SMILES): CC(=O)OCc1ccc2oc(=O)c(C(=O)Oc3cccc(Cl)c3)cc2c1 [Id2, 3-chlorophenyl 6-acetoxymethyl-2-oxo-2H-1-benzopyran-3-carboxylate]
kinact/KI [1, 6]: 1440 M⁻¹ s⁻¹
kinact/KI [3, 7]: 580 M⁻¹ s⁻¹
kinact/KI [2, 5]: 20000 M⁻¹ s⁻¹

Structure (SMILES): CC(C)(C)C(=O)OCc1ccc2oc(=O)c(C(=O)Oc3cncc(Cl)c3)cc2c1 [Id8, 5-chloro-3-pyridyl 6-trimethylacetoxymethyl-2-oxo-2H-1-benzopyran-3-carboxylate]
kinact/KI [1, 8]: 95500 M⁻¹ s⁻¹
Ki/KI or kobs/[I], Thrombin ([3]; TABLE 3): N.I. N.I. N.I. N.I. N.I. N.I. N.I. N.I. —
Ki/KI or kobs/[I], α-CT [2, 9]: N.I.^a N.I. N.I. N.I. N.I. N.I. N.I. N.I.
Ki/KI or kobs/[I], Trypsin ([4]; TABLE 3): N.I. N.I. N.I. N.I. N.I. N.I. N.I. — —

kinact/KI [1, 8]: 9100 M⁻¹ s⁻¹
Ki/KI or kobs/[I], LHE [1, 10]: 9100 M⁻¹ s⁻¹
melting point: 230 °C (dec.)
Structure (SMILES): Cl.NCc1ccc2oc(=O)c(C(=O)Oc3cncc(Cl)c3)cc2c1 [If3, 5-chloro-3-pyridyl 6-aminomethyl-2-oxo-2H-1-benzopyran-3-carboxylate hydrochloride]
Ki/KI or kobs/[I], Thrombin ([3]; TABLE 3): N.I. N.I. N.I. N.I. N.I. N.I. N.I. N.I. —
Ki/KI or kobs/[I], Thrombin ([3]; second table headed TABLE 3): N.I. N.I. N.I. N.I. N.I. N.I. N.I. N.I. —
Ki/KI or kobs/[I], α-CT [2, 9]: N.I.^a N.I. N.I. N.I. N.I. N.I. N.I. N.I.
Ki/KI or kobs/[I], α-CT ([2]; second table headed TABLE 3): N.I.^a N.I. N.I. N.I. N.I. N.I. N.I. N.I.

kinact/KI [1, 8]: 58000 M⁻¹ s⁻¹
Ki/KI or kobs/[I], α-CT [2, 9]: # N.I.
Structure (SMILES): O=C(Oc1cncc(Cl)c1)c1cc2cc(Br)ccc2oc1=O [Ig1, 5-chloro-3-pyridyl 6-bromo-2-oxo-2H-1-benzopyran-3-carboxylate]
